# Measured values reported in patent US9707253B2, “High-loading, controlled-release magnesium oral dosage forms and methods for making and using same” (Pharmalyte Solutions, LLC, priority 2008, dated 2017).
# “And” between values parts separate entries of the source, which are not always exact repeats. Equal values may be shown once.
# Legend:
# [1] = normal: minimum 33.9 mEq/IU; cited from earlier work
# [2] = Absolute bioavailability study: serum magnesium pharmacokinetics; conditions: fasted; for AUC0-72 / AUC0-t / Cmax: mean (SD); for Tmax: median (range)
# Description: (§1) A study has been conducted to investigate magnesium L-lactate dihydrate extended release caplets for management of magnesium-deficient patients who have experienced electrolyte imbalance due to iatrogenic or disease cause such as episodic migraine headaches. […] A study to compare the absolute bioavailability of an oral magnesium formulation compared to an IV administered magnesium sulfate including both serum and urine pharmacokinetic parameters has never been reported in the scientific literature.
# (§2) Three treatment regimens (Treatments A, B, and C) were employed in the study.
# (§3) Urine and blood samples were collected for pharmacokinetic (PK) analysis of urinary and serum magnesium concentrations. A total of 29 urine samples for each subject were collected continuously throughout the study for determination of fractional and daily urine magnesium concentrations, and 33 blood samples were collected from each subject for determination of serum magnesium concentrations at each time point during the study.
# (§4) The PK analysis population included 29 subjects for Treatment A, 29 subjects for Treatment B, and 31 subjects for Treatment C.
# (§5) The absolute bioavailability of magnesium was evaluated by comparing serum magnesium exposure (AUC0-72) or urinary magnesium excretion (Ae0-72) after oral versus IV administration.
# [3] = Absolute bioavailability study: urinary magnesium pharmacokinetics; conditions: baseline-adjusted, Treatment B: IV infusion 20 mEq over 4 hours, fasted
# Description: as §1, §2, §3, §4, §5
# [4] = oral magnesium salts, background statement; cited from earlier work
# [5] = healthy subjects, approximately 21 mEq, urinary excretion; cited from earlier work
# [6] = baseline-adjusted, Treatment B: IV infusion 20 mEq over 4 hours
# [7] = observed, Treatment B: IV infusion 20 mEq over 4 hours
molecule,measurement,setting,value
"CC(O)C(=O)[O-].CC(O)C(=O)[O-].[Mg+2] (stereo not drawn) [magnesium lactate, 2-hydroxypropanoic acid magnesium salt]",effective in repleting intracellular magnesium levels to normal ranges,[1],100%
O=S(=O)([O-])[O-].[Mg+2] [magnesium sulfate],AUC0-72,[2]; [6],76.2 (37.9) h · μg/mL
same,AUC0-t,[2]; [6],72.8 (35.4) h · μg/mL
same,Cmax,[2]; [6],6.79 (1.46) μg/mL
same,Tmax,[2]; [6],4.00 (2.00-6.00) h
same,AUC0-72,[2]; [7],1390 (121) h · μg/mL
same,AUC0-t,[2]; [7],1390 (121) h · μg/mL
same,Cmax,[2]; [7],25.7 (1.62) μg/mL
same,Tmax,"[2]; observed, Treatment B: single IV infusion 20 mEq over 4 hours",4.00 (2.00-6.00) h
same,CLR0-72,[3]; median (range),3.57 (1.44-35.6) L/h
same,Ae0-72,"[3]; urine, mean (SD)",225 (49.5) mg
same,Rmax,"[3]; urine, mean (SD)",20.5 (4.29) mg/h
same,fe0-72,"[3]; urine, mean (SD)",92.7% and 92.7 (20.4) %
same,"Tmax,rate","[3]; urine, median (range)",5.00 (3.00-9.00) h
[Cl-].[Cl-].[Mg+2] [magnesium chloride],bioavailability,[4],about 20%
magnesium gluconate,bioavailability,[4],about 20%
[O]=[Mg] [magnesium oxide],bioavailability,[4],about 2%
same,fractional absorption average,[5],4%
